Measured values taken from PMC7827406, “Structure–Activity Relationship (SAR) Study of Spautin-1 to Entail the Discovery of Novel NEK4 Inhibitors” (International Journal of Molecular Sciences, 2021).
Where two headings read alike, the source gives them in different places.

Columns and labels:
Assay in all cases: biochemical
Set-up in all cases: Eurofins KinaseProfiler full panel at Km ATP, residual kinase activity (%) relative to DMSO
Tie2(R849W)(h) = target: T1, Tie2(R849W)(h) (Homo sapiens, UniProt Q02763, R849W)
T1 construct: gene TEK
T1 sequence (Q02763 whole entry R849W): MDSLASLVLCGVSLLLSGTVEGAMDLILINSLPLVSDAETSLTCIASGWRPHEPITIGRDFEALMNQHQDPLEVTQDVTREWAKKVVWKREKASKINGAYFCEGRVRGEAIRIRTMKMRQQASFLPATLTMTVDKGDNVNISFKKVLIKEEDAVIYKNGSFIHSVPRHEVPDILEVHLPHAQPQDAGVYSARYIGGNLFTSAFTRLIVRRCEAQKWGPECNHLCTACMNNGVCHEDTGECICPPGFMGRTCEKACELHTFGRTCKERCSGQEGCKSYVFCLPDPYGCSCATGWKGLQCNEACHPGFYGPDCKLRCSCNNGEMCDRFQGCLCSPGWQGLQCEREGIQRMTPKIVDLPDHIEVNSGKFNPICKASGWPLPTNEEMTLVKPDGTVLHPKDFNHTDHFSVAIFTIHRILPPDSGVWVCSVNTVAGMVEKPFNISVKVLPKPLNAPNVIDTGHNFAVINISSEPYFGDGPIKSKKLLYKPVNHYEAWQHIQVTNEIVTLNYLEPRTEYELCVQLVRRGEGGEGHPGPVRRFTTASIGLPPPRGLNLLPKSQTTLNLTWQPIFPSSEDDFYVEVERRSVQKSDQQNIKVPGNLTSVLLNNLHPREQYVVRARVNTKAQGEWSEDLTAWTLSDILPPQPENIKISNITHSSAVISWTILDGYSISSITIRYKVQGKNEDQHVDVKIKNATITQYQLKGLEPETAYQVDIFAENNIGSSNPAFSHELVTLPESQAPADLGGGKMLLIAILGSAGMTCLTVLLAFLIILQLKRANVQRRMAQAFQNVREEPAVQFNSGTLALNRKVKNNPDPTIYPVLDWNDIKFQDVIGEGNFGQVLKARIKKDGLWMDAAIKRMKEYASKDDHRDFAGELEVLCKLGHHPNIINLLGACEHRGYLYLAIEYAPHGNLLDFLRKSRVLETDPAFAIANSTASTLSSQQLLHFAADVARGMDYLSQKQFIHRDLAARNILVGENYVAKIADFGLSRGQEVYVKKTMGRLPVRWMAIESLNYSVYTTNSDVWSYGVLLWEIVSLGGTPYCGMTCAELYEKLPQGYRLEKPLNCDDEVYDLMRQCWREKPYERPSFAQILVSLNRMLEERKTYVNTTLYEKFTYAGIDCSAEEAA
How it was run: (§1)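 Radiometric kinase activity assays were run with ATP at Km and compounds at 10 µM, and remaining activity (%) was reported. A separate competitive binding screen measured DNA-tagged kinase displaced from immobilized active-site ligands by qPCR, giving percent kinase still bound at 10 µM compound in DMSO.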

PAK5(h) = PAK5(h) (Homo sapiens, UniProt Q9P286)
PAK5(h), sequence (Q9P286 whole entry): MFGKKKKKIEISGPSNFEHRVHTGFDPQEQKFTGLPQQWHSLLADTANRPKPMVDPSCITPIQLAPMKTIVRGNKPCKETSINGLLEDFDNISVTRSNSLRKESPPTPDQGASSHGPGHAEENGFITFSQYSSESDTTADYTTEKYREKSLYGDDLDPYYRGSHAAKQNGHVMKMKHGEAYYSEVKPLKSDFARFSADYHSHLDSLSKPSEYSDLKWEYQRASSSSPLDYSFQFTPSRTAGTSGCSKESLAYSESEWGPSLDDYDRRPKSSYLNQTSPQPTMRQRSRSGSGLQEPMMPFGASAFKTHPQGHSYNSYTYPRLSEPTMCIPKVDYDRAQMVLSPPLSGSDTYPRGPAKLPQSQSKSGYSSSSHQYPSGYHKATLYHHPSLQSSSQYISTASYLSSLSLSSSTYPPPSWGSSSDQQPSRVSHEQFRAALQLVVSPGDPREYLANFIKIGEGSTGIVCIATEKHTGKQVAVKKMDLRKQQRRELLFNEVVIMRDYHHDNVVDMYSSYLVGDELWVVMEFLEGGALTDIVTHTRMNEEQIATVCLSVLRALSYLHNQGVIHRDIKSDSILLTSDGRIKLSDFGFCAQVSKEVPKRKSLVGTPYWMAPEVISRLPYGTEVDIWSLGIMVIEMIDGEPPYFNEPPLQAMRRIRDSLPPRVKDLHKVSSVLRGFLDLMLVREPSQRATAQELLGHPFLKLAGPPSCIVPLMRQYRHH
How it was run: as §1

Rsk4(h) = target: T2, Rsk4(h) (Homo sapiens, UniProt Q9UK32)
T2 construct: gene RPS6KA6
T2 sequence (Q9UK32 whole entry): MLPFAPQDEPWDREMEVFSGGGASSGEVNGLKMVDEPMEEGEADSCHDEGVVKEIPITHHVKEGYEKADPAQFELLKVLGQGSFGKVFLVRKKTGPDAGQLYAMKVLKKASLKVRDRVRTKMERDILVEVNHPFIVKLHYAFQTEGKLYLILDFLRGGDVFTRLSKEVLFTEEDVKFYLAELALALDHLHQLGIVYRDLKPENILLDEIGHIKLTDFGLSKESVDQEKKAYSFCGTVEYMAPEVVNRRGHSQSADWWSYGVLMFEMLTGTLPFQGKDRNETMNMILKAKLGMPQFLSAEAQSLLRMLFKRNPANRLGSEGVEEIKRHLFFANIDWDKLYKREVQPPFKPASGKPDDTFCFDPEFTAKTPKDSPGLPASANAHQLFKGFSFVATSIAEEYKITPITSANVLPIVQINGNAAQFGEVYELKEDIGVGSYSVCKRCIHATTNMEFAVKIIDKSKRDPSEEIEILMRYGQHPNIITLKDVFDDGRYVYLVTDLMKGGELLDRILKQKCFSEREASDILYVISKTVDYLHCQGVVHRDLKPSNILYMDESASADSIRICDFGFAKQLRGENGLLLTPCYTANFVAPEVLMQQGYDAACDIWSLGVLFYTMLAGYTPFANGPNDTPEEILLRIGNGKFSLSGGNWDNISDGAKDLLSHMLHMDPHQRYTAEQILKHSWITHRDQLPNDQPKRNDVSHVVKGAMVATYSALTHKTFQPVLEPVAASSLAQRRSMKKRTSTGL
How it was run: as §1

TAO2(h) = target: T3, TAO2(h) (Homo sapiens, UniProt Q9UL54)
T3 construct: gene TAOK2
T3 sequence (Q9UL54 1-1235): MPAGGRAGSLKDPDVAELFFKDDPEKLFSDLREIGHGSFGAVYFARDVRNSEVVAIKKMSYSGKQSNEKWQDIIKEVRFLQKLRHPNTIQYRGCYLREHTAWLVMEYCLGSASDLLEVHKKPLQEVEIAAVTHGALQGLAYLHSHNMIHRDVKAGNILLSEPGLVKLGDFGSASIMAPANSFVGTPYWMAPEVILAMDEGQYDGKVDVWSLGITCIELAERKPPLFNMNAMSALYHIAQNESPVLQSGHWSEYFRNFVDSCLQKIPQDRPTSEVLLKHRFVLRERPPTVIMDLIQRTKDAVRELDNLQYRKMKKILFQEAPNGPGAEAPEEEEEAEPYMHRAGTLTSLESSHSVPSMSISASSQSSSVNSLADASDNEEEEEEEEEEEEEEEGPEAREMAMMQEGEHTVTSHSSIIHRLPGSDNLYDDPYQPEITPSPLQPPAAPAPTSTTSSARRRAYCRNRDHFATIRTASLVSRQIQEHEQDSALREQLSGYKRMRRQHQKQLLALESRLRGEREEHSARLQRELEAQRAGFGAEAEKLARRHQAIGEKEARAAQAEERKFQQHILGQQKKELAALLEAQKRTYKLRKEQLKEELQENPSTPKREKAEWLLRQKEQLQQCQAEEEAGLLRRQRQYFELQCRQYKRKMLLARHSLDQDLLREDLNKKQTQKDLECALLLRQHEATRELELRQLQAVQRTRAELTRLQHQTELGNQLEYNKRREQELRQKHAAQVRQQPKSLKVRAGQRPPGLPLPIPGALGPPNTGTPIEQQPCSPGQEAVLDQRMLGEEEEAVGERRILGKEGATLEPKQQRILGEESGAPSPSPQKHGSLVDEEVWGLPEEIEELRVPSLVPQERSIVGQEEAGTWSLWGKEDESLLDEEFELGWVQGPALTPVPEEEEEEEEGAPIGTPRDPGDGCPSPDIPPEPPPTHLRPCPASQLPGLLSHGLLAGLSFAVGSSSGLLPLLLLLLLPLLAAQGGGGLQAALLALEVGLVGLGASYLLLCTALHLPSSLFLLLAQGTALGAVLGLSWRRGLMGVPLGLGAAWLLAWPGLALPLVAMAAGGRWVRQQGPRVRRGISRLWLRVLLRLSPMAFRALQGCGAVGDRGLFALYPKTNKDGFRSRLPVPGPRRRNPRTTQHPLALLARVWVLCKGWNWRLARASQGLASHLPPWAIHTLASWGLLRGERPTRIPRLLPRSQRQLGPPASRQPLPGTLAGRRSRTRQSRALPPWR
How it was run: as §1

Tie2 (h) = target: T4, Tie2 (h) (Homo sapiens, UniProt Q02763)
T4 construct: gene TEK
T4 sequence (Q02763 whole entry): as the sequence (Q02763 whole entry R849W) above, with W849R counted along it
How it was run: as §1

[1] = read-out: Residual activity (%) Spautin-1 5aa
[2] = read-out: Residual activity (%) 5as
[3] = read-out: Residual activity (%) 5at
[4] = read-out: Residual activity (%) 5ay

## Fc1ccc(CNc2ncnc3ccc(F)cc23)cc1 [5aa, 6-Fluoro-N-(4-fluorobenzyl)-4-Quinazolinamine]
Tie2(R849W)(h); [1]
  remaining activity at 10 µM: 91%
PAK5(h); [1]
  remaining activity at 10 µM: 95%
Rsk4(h); [1]
  remaining activity at 10 µM: 117%
TAO2(h); [1]
  remaining activity at 10 µM: 110%
Tie2 (h); [1]
  remaining activity at 10 µM: 104%

## Fc1ccc(CCNc2ncnc3ccc(F)cc23)cc1 [5as, 6-Fluoro-N-[2-(4-Fluorophenyl)Ethyl]-4-Quinazolinamine]
Tie2(R849W)(h); [2]
  remaining activity at 10 µM: 98%
PAK5(h); [2]
  remaining activity at 10 µM: 85%
Rsk4(h); [2]
  remaining activity at 10 µM: 81%
TAO2(h); [2]
  remaining activity at 10 µM: 109%
Tie2 (h); [2]
  remaining activity at 10 µM: 92%

## Fc1ccc2ncnc(NCCc3ccc(Cl)cc3)c2c1 [5at, N-[2-(4-Chlorophenyl)Ethyl]-6-Fluoro-4-Quinazolinamine]
Tie2(R849W)(h); [3]
  remaining activity at 10 µM: 90%
PAK5(h); [3]
  remaining activity at 10 µM: 86%
Rsk4(h); [3]
  remaining activity at 10 µM: 92%
TAO2(h); [3]
  remaining activity at 10 µM: 107%
Tie2 (h); [3]
  remaining activity at 10 µM: 75%

## COc1ccc2ncnc(Nc3cccc(F)c3)c2c1 [5ay, N-(3-Fluorophenyl)-6-Methoxy-4-Quinazolinamine]
Tie2(R849W)(h); [4]
  remaining activity at 10 µM: 110%
PAK5(h); [4]
  remaining activity at 10 µM: 83%
Rsk4(h); [4]
  remaining activity at 10 µM: 100%
TAO2(h); [4]
  remaining activity at 10 µM: 112%
Tie2 (h); [4]
  remaining activity at 10 µM: 94%
